Experimental data reported in US20240299361A1, “VETERINARY TRANSDERMAL GEL COMPRISING ONDANSETRON, AND RELATED METHODS” (Verté Therapeutics, LLC, priority 2023, published 2024).
Counter-ions that a name gives are not always drawn.

Experiment: Visual solubility screen for Ondansetron HCl in solvents/excipients
Assay type: physicochemical
Description: The purpose of this study was to evaluate the solubility of Ondansetron HCl in an array of solvents/excipients to develop a stable topical formulation for transdermal application in cats and dogs. In this screen, evaluation of solubility was determined by visual examination only.
The following procedure was used to determine solubility of the API (Ondansetron HCl): • a. Label 20 mL USP Type I scintillation vials appropriately for each solvent/solvent blend that will be tested. Although API is light sensitive, clear glass vials will be used, as the study is a visual assessment only. • b. Place a stir bar in each vial. Weigh the empty vial containing stir bar and cap with inert liner. Record the tare weight. • c. Weigh approximately 3.0 g of each solvent into the designated vial. • d. Weigh approximately 30.0 mg of the API into each vial. • e. Place all closed vials on a stir plate and allow mixing for at least 30 minutes at ambient conditions. • f. Visually inspect to see if the API has completely dissolved. Record the stir time and observations. • g. If the API has dissolved, repeat steps d to f until saturation solubility is achieved or up to 10% w/w. • h. Record additional API aliquots added to the mixture. Continue stirring solutions overnight at ambient temperature to confirm solubility is maintained. • i. Record the final weight of the vial, cap, stir bar, and sample to calculate the total amount of active and/or solvent added at room temperature. • j. Heat (if applicable) all the vials in which API is not soluble to 65° C. for 1 hour and check the solubility. Allow them to cool to room temperature and check for any precipitation in the vials in which API was soluble when heated. Perform microscopy as deemed necessary. • k. Confirm the pH of buffer solutions after addition and solubilization (if applicable) of the API. • l. Record final observations and take pictures as needed to document the observations.
Upon addition of Ondansetron HCl to each solvent, vials were subjected to stirring at room temperature at 400 RPM.
For the secondary solvent solubility screen, solvents which required heating as primary systems were blended at a 1:1 ratio with other solubilizers being screened.

Solubility (visual) (in Citrate buffer USP (pH 3.0), without heating): at least 1 % w/w | Solubility achieved (visual) (in DMSO): ≥ 10% | Solubility (visual) (in DMSO, without heating): at least 1 % w/w | Solubility (visual) (in PEG 400, without heating): at least 1 % w/w | Solubility (visual) (in absolute alcohol, without heating): at least 1 % w/w | Solubility achieved (visual) (in benzyl alcohol): ≥ 10% | Solubility (visual) (in benzyl alcohol, without heating): at least 1 % w/w | Solubility (visual) (in diethylene glycol monoethyl ether, without heating): at least 1 % w/w | Solubility achieved (visual) (in propylene glycol): ≥ 10% | Solubility (visual) (in propylene glycol, without heating): at least 1 % w/w
SMILES: Cc1nccn1CC1CCc2c(c3ccccc3n2C)C1=O (stereo not shown) [Ondansetron HCl]
